# Experimental data from PMC8456958, “Selective Bacterial Targeting and Infection‐Triggered Release of Antibiotic Colistin Conjugates” (Angewandte Chemie (International Ed. in English), 2021).
# Positions of bridges follow the written chain, without caps; N, C: chain ends. Non-standard residues stand in square brackets, D forms with d. Residues, ends and D or L forms follow the SMILES beside them. *: point of attachment. Heptanoyl(6-Me) = CC(C)CCCCC(=O)*; Dab = NCC[C@H](N)C(=O)O
# How the values were obtained:
# E. coli K12 [1] = type: cell-based, Escherichia coli
# Method: Determination of antibacterial activities by broth dilution assay
# Bacterial suspensions at 5-6 x 10^5 CFU (1:1000 dilution of a bacterial suspension of OD600 = 1) in T-medium were incubated in volumes of 200 µl in sterile clear 96-well microtiter plates at 37 °C in a wet chamber with serial dilution of peptide-colistin constructs and controls (32 – 0.016 µM) for 18 h.
# External neutrophil elastase was added at 10 mU/ml or 100 mU/ml to each well at the start of incubation, where indicated. After the incubation, the plate was placed for 5 min on a MTP shaker to generate homogenous bacterial suspensions. OD600 was then determined in a microplate reader. The wells with the lowest compound concentration without growth defined the MICs. […]
# Figure S7. Heat plot of the growth of E. coli K12 and E. coli DSM 1116 in presence of 6. Rows A-D: E. coli K12; Rows E-H: E. coli DSM 1116; A + E colistin; B + F peptide-colistin construct 6; C + G peptide-colistin construct 6 + 10 mU/ml elastase; D + H bacteria without compounds. The numbers below the heatplot depict the concentration of colistin and peptides in µM. Conditions: T medium, incubation 20 h at 37 °C in wet chamber; inoculum: cultures at OD = 1.0 diluted 1:1000 (5-6 x 10^5 CFU/ml). […]
# Figure S10. Heat plot of the growth of E. coli in presence of 48 and 49. Row A: E. coli K12 without added compounds; B colistin B; C peptide-colistin construct 49; D peptide-colistin construct 49 + 10 mU/ml elastase; E ElsaSub-colistin; F 48 with 10 mU elastase; G 4; H 4 with […]. The numbers depict the concentration of colistin and peptides in µM. Conditions: T medium, incubation 17.5 h at 37 °C in wet chamber; inoculum 5-6 x 10^5 CFU/ml. […]
# with elastase 10 mU/ml pos-1-isomer (22) […]
# with elastase 10 mU/ml pos-3-isomer (28) […]
# with elastase 10 mU/ml pos-5-isomer (34) […]
# with elastase 10 mU/ml pos-8-isomer (40) […]
# with elastase 10 mU/ml pos-9-isomer (46)
# Figure S11. Heat plot of the growth of E. coli in presence of positional isomers obtained by total chemical synthesis. Conditions: T medium, incubation for 20 h at 37 °C in wet chamber; inoculum 5-6 x 10^5 CFU/ml. Addition of neutrophil elastase at 10 and 100 mU/ml, as indicated. Concentrations of isomers stated below the heat plot in µg/ml. […]
# E. coli K12 [2] = experiment: Infection assay in human plasma (CFU test, PMN/E. coli co-culture); type: cell-based, Escherichia coli; settings: 10 μM, human blood plasma, bacteria:PMN 16:1, 1 h, 37 °C
# Method: Figure 5 Cellular proof of concept for triggered antibiotic release from 6. a) Release of neutrophil elastase (NE) from neutrophil granulocytes. PMN were isolated and suspended in RPMI 1640. For activation, 0.1 μM fMLP was added. The samples were incubated for 1 h at 37 °C, centrifuged to remove cells, and the NE concentration was determined in the supernatant by ELISA. Values normalized to 1×10^6 cells mL^−1. Data are presented as the mean of 4 separate experiments. *p<0.03 compared to unactivated. b) Activity of NE after co‐cultivation of PMN with E. coli K12 in presence of 1 or 6. […] After 1 h colistin concentrations were determined by HPLC–MS. […]
# Calculation of results: All samples and standards were measured in duplicate. The standard curve was constructed by plotting the mean absorbance for each standard on the y-axis against the concentration on the x-axis. A linear regression analysis was performed and the results for the samples were calculated. […]
# on. […] The plate was incubated in a microplate reader for 60 min at 37 °C with shaking for 5 sec at 50 rpm once per minute.
# Every minute readings were taken at 410 nm. For the calculation of the cleavage velocity, the difference in absorbance after an initialization phase at 15 min and a further incubation time of 30 min was used and related to total cleavage of the substrate. The blank was subtracted from the readings. […]
# [3] = Table 2, E. coli K12, conservative MIC readouts of at least three independent biological experiments
smiles,measurement,setting,value
"CC(C)CCCCC(=O)N[C@@H](CCN)C(=O)N[C@H](C(=O)N[C@@H](CCN)C(=O)N[C@H]1CCNC(=O)[C@H]([C@@H](C)O)NC(=O)[C@H](CCN)NC(=O)[C@H](CCN)NC(=O)[C@H](CC(C)C)NC(=O)[C@@H](CC(C)C)NC(=O)[C@H](CCN)NC1=O)[C@@H](C)O [Compound 1, colistin B, reference compound] ({Heptanoyl(6-Me)}-[Dab]T[Dab][Dab][Dab][dL]L[Dab][Dab]T; lactam 4-C)","MIC, E. coli K12","E. coli K12 [1]; Table 1, without elastase, broth dilution, T-medium, 5-6 x 10^5 CFU, 37 °C, OD600 readout",0.063 µM
same,MIC with 10 mU mL^−1 Elastase,E. coli K12 [1]; [3],0.031 µM
same,MIC with 100 mU mL^−1 Elastase,E. coli K12 [1]; [3],0.031 µM
same,MIC without Elastase,E. coli K12 [1]; [3],0.031 µM
same,effect on bacterial growth,E. coli K12 [2],abolished growth completely
